Calls of active or inactive are those of the source. The calls are words filed in the database; no cut-off is given here.

For series [1], the system named is Plasmodium berghei. As to the kind of experiment: Antimalarial activity against Plasmodium berghei KBG 173 infected in mouse assessed as cured animal from parasite infection at 160 mg/kg. The series is classed as functional, organism-based. Also on record: dose 160 mg/kg.
For series [2], the system named is Plasmodium berghei. As to the kind of experiment: Antimalarial activity against Plasmodium berghei KBG 173 infected in mouse assessed as increase of mean survival time at 640 mg/kg. It counts as functional.
Series [3] relates to Mus musculus. The experiment in a line: Toxicity in Plasmodium berghei KBG 173 infected mouse at 640 mg/kg. It counts as organism-based. Also on record: dose 640 mg/kg. The settings on record: in vivo.
For series [4], the system named is Plasmodium berghei. The experiment in a line: Antimalarial activity against Plasmodium berghei KBG 173 infected in mouse assessed as increase of mean survival time at 160 mg/kg. The series is classed as functional.
The test system of series [5] is Mus musculus. As to the kind of experiment: Toxicity in Plasmodium berghei KBG 173 infected mouse at 160 mg/kg. It counts as organism-based. Also on record: dose 160 mg/kg. The settings on record: in vivo.
In series [6] the test system is Plasmodium berghei. As to the kind of experiment: Antimalarial activity against Plasmodium berghei KBG 173 infected in mouse assessed as increase of mean survival time at 40 mg/kg. It counts as functional.
The subject of series [7] is Mus musculus. The experiment in a line: Toxicity in Plasmodium berghei KBG 173 infected mouse at 40 mg/kg. The series is classed as organism-based. Details: dose 40 mg/kg. Particulars: in vivo.
In series [8] the test system is Plasmodium berghei. The experiment in a line: Antimalarial activity against Plasmodium berghei KBG 173 infected in mouse assessed as cured animal from parasite infection at 640 mg/kg. It counts as functional, organism-based. Details: dose 640 mg/kg.
Series [9] concerns Plasmodium berghei. The experiment in a line: Antimalarial activity against Plasmodium berghei KBG 173 infected in mouse assessed as cured animal from parasite infection at 40 mg/kg. The series is classed as functional, organism-based. Also on record: dose 40 mg/kg.
In series [10] the test system is Plasmodium berghei. As to the kind of experiment: Antimalarial activity against Plasmodium berghei KBG 173 infected in mouse assessed as cured animal from parasite infection at 320 mg/kg. Also on record: dose 320 mg/kg. The series is classed as functional, organism-based.
Series [11] concerns Plasmodium berghei. The experiment in a line: Antimalarial activity against Plasmodium berghei KBG 173 infected in mouse assessed as cured animal from parasite infection at 80 mg/kg. The series is classed as functional, organism-based. Details: dose 80 mg/kg.

Regarding `C/C(=N/NC(=S)N1CCC(O)CC1)c1ccccn1`, in the series on Plasmodium berghei [1], the outcome was Active. Besides, the Survival in the series on Plasmodium berghei [2] is 0.6 days; in the series on Plasmodium berghei [4] it was 0 days; in the series with Plasmodium berghei [6] it was -0.1 days. The Activity result in the series with Mus musculus [3], in the series with Mus musculus [5] and in the series with Mus musculus [7] was “Toxic” in each case.

`C/C(=N/NC(=S)N1CCCCCCCCCCCC1)c1ccccn1`: the figures for the Survival in the series with Plasmodium berghei [2], in the series on Plasmodium berghei [4] and in the series with Plasmodium berghei [6] were 2.9 days, 0.1 days and 0 days, respectively.

In the case of `C/C(=N/NC(=S)N1CC=CCC1)c1ccccn1`, the Survival is 7.4 days in the series with Plasmodium berghei [2], 1.4 days with Plasmodium berghei [4] and 4 days with Plasmodium berghei [6]. Moreover, the Activity entry in the series with Mus musculus [3] and in the series on Mus musculus [5] was “Toxic” throughout.

Turning to `C/C(=N/NC(=S)N(C)CCc1ccccc1)c1ccccn1`, the result in the series on Plasmodium berghei [1] and in the series on Plasmodium berghei [8] was Active. In addition, the Survival in the series on Plasmodium berghei [4] worked out at 7.2 days; with Plasmodium berghei [6] it was 0.4 days.

Regarding `C/C(=N/NC(=S)N(CC(C)C)CC(C)C)c1ccccn1`, the values for the Survival in the series on Plasmodium berghei [2], in the series with Plasmodium berghei [4] and in the series on Plasmodium berghei [6] were 0.5 days, 0.8 days and -0.2 days, respectively. In addition, the Activity entry with Mus musculus [3] and in the series on Mus musculus [5] was “Toxic” in each case.

In the case of `C/C(=N/NC(=S)N1CCCCCCCC1)c1ccccn1`, the Survival with Plasmodium berghei [2] was 9 days; with Plasmodium berghei [4] it was 1.7 days; with Plasmodium berghei [6], -0.3 days. Moreover, in the series on Plasmodium berghei [8], the outcome was Active.

On to `C/C(=N/NC(=S)N1CCC1)c1ccccn1`, for which the result with Plasmodium berghei [1] and with Plasmodium berghei [8] was Active. The results for the Survival in the series with Plasmodium berghei [2], in the series on Plasmodium berghei [4] and with Plasmodium berghei [6] were 0 days, 0 days and 1.7 days, respectively. The Activity entry in the series on Mus musculus [3] and with Mus musculus [5] was “Toxic” each time.

In the case of `C/C(=N/NC(=S)N(C)C1CCCCC1)c1ccccn1`, in the series with Plasmodium berghei [1], the outcome was Active. Also, the Survival was -0.3 days in the series with Plasmodium berghei [2] and 3.7 days in the series with Plasmodium berghei [6]. For the same compound, the Activity entry in the series with Mus musculus [3] and in the series with Mus musculus [5] was “Toxic” each time.

`C/C(=N/NC(=S)N(C)CC(O)C(O)C(O)C(O)CO)c1ccccn1` (stereo unspecified): the results for the Survival in the series with Plasmodium berghei [2], in the series on Plasmodium berghei [4] and with Plasmodium berghei [6] were 0.3 days, 1.4 days and 0.2 days, respectively. The Activity result with Mus musculus [3] is “Toxic”.

As to `C/C(=N/NC(=S)N1CCCC(C)C1)c1ccccn1` (stereo unspecified), the outcome in the series on Plasmodium berghei [1] and in the series on Plasmodium berghei [8] was Active. The Survival with Plasmodium berghei [2] was 0 days; in the series with Plasmodium berghei [6] it was 4.1 days. The Activity result in the series on Mus musculus [3] and in the series with Mus musculus [5] was “Toxic” in each case.

Consider `C/C(=N/NC(=S)N1CCN(c2ccc(F)cc2)CC1)c1ccccn1`, for which the outcome in the series with Plasmodium berghei [1], in the series with Plasmodium berghei [8] and with Plasmodium berghei [9] was Active. Further, the Survival in the series on Plasmodium berghei [2] came out at 9 days.

In the case of `C/C(=N/NC(=S)N(Cc1ccccc1)Cc1ccccc1)c1ccccn1`, the figures for the Survival in the series with Plasmodium berghei [2], with Plasmodium berghei [4] and with Plasmodium berghei [6] were -0.2 days, 1.6 days and -0.1 days, respectively. For the same compound, the Activity result in the series with Mus musculus [3] and in the series on Mus musculus [5] was “Toxic” in each case.

Turning to `C/C(=N/NC(=S)N1CCc2ccccc2C1)c1ccccn1`, the result with Plasmodium berghei [1] and with Plasmodium berghei [8] was Active. In addition, the Survival was determined as 7.7 days with Plasmodium berghei [4] and 3.5 days in the series on Plasmodium berghei [6].

For `C/C(=N/NC(=S)N(C)C)c1ccccn1`, the outcome in the series on Plasmodium berghei [1] and with Plasmodium berghei [8] was Active. Besides, the Survival in the series on Plasmodium berghei [2] was 0 days; in the series on Plasmodium berghei [4], 0 days; with Plasmodium berghei [6], 0.5 days. Besides, the Activity result with Mus musculus [3], with Mus musculus [5] and in the series with Mus musculus [7] was “Toxic” each time.

Take `C/C(=N/NC(=S)N1CCN(C)CC1)c1ccccn1`: the outcome in the series with Plasmodium berghei [1] and with Plasmodium berghei [9] was Active. The Survival in the series with Plasmodium berghei [2], in the series with Plasmodium berghei [4] and in the series on Plasmodium berghei [6] was 0 days in each case. Moreover, the Activity result in the series with Mus musculus [3], in the series on Mus musculus [5] and in the series with Mus musculus [7] was “Toxic” throughout.

Regarding `C/C(=N/NC(=S)N1CCCCCCC1)c1ccccn1`, the result in the series on Plasmodium berghei [1], with Plasmodium berghei [10], with Plasmodium berghei [11] and in the series on Plasmodium berghei [8] was Active. For the same compound, in the series with Plasmodium berghei [6], the Survival turned out to be 0.6 days.

For the compound `CCC1CCCCN1C(=S)N/N=C(/C)c1ccccn1` (stereo unspecified), the result in the series with Plasmodium berghei [1] was Active. Further, the Survival in the series on Plasmodium berghei [2] was -0.2 days; in the series on Plasmodium berghei [6] it was 5.6 days. In addition, in the series on Mus musculus [3], the Activity entry is recorded as “Toxic”.

In the case of `CCCN(CCC)C(=S)N/N=C(/C)c1ccccn1`, the outcome in the series with Plasmodium berghei [1] and with Plasmodium berghei [9] was Active. Moreover, the figures for the Survival in the series with Plasmodium berghei [2], in the series with Plasmodium berghei [4] and with Plasmodium berghei [6] were 3 days, 0 days and 0 days, respectively. The Activity entry with Mus musculus [5] and in the series on Mus musculus [7] was “Toxic” each time.

For `C/C(=N/NC(=S)N1CCC(c2ccccc2)CC1)c1ccccn1`, the result with Plasmodium berghei [1], with Plasmodium berghei [10], in the series on Plasmodium berghei [11] and with Plasmodium berghei [8] was Active. The Survival in the series on Plasmodium berghei [6] was found to be 0.4 days.

As for `C/C(=N/NC(=S)N1CCN(c2ccccn2)CC1)c1ccccn1`, the outcome in the series on Plasmodium berghei [1], in the series on Plasmodium berghei [10], in the series with Plasmodium berghei [11], with Plasmodium berghei [8] and in the series with Plasmodium berghei [9] was Active.

For `C/C(=N/NC(=S)N1CCCCC1)c1ccccn1`, the Survival in the series on Plasmodium berghei [2] is 0 days; with Plasmodium berghei [4], -0.4 days; in the series on Plasmodium berghei [6], -0.4 days.

Turning to `C/C(=N/NC(=S)N1CCCCC1C)c1ccccn1` (stereo unspecified), the outcome in the series with Plasmodium berghei [1], in the series on Plasmodium berghei [8] and in the series on Plasmodium berghei [9] was Active. Further, the Survival with Plasmodium berghei [2] and in the series with Plasmodium berghei [4] was 0 days in each case. Moreover, the Activity entry with Mus musculus [3] and in the series with Mus musculus [5] was “Toxic” in each case.

On to `C/C(=N/NC(=S)N1CCCN(C)CC1)c1ccccn1`, for which the values for the Survival in the series on Plasmodium berghei [2], in the series on Plasmodium berghei [4] and in the series with Plasmodium berghei [6] were 0 days, 0.8 days and 0.8 days, respectively. Further, the Activity result with Mus musculus [3], in the series on Mus musculus [5] and in the series on Mus musculus [7] was “Toxic” in each case.

`C/C(=N/NC(=S)N1CCc2ccccc21)c1ccccn1`: the Survival came to 0.3 days in the series with Plasmodium berghei [2], 0.3 days with Plasmodium berghei [4] and 0.5 days in the series with Plasmodium berghei [6]. Further, the Activity result in the series with Mus musculus [3] and in the series with Mus musculus [5] was “Toxic” in each case.

Turning to `C/C(=N/NC(=S)N1CCC(C)CC1)c1ccccn1`, the result in the series on Plasmodium berghei [1], in the series with Plasmodium berghei [8] and in the series on Plasmodium berghei [9] was Active. The Survival in the series on Plasmodium berghei [2] and in the series with Plasmodium berghei [4] was 0 days throughout. Further, the Activity entry in the series with Mus musculus [3] and with Mus musculus [5] was “Toxic” throughout.

Take `C/C(=N/NC(=S)N1CCN(c2ccccn2)CC1)c1ccccn1.Cl`: the Survival with Plasmodium berghei [2] was determined as 0 days; with Plasmodium berghei [6], 3.2 days. The Activity result in the series with Mus musculus [3] is listed as “Toxic”.

Values taken from ChEMBL document CHEMBL3244333, “2-Acetylpyridine thiosemicarbazones. 2. N4,N4-Disubstituted derivatives as potential antimalarial agents” (J Med Chem, 1979).
